ChEMBL document CHEMBL1201862, “PubChem BioAssay data set” (2004)
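Briefly, cells in 96-well plates were exposed to five compound concentrations for 48 h, and endpoints were estimated by linear interpolation. GI50: concentration for 50% inhibition of growth.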 Active and inactive are the calls of the source. Rule as the data show it: active = GI50 up to about 1.1 µM and inactive = higher.

Assays:
Test in all cases: growth of human tumour cells (NCI), 48 h
CCRF-CEM = tested on: CCRF-CEM
EKVX = tested on: EKVX
HCC 2998 = tested on: HCC 2998
HCT-15 = tested on: HCT-15
HOP-92 = tested on: HOP-92
KM12 = tested on: KM12
LOX IMVI = tested on: LOX IMVI
Malme-3M = tested on: Malme-3M
OVCAR-5 = tested on: OVCAR-5
RXF 393 = tested on: RXF 393
SK-MEL-5 = tested on: SK-MEL-5
SNB-19 = tested on: SNB-19
U-251 = tested on: U-251
UACC-257 = tested on: UACC-257
UO-31 = tested on: UO-31

Row | Structure (SMILES) | GI50 (CCRF-CEM) | GI50 (EKVX) | GI50 (HCC 2998) | GI50 (HCT-15) | GI50 (HOP-92) | GI50 (KM12) | GI50 (LOX IMVI) | GI50 (Malme-3M) | GI50 (OVCAR-5) | GI50 (RXF 393) | GI50 (SK-MEL-5) | GI50 (SNB-19) | GI50 (U-251) | GI50 (UACC-257) | GI50 (UO-31)
1 | COc1cccc(-c2cc(C(=O)Nc3ccc(Cl)cc3)nc(N)n2)c1 | > 100 µM (inactive) | > 100 µM (inactive) | 87.7 µM (inactive) | 41.5 µM | > 100 µM (inactive) | 43.7 µM (inactive) | 66.1 µM (inactive) | 57.7 µM (inactive) | > 100 µM (inactive) | 39.4 µM (inactive) | 55.6 µM (inactive) | 70.8 µM (inactive) | 60.8 µM (inactive) | 81.1 µM (inactive) | > 100 µM (inactive)
2 | Cn1c(=O)c2[nH]cnc2n(CC(N)=O)c1=O | > 100 µM (inactive) | > 100 µM (inactive) | – | > 100 µM | > 100 µM (inactive) | > 100 µM (inactive) | – | > 100 µM (inactive) | – | – | > 100 µM (inactive) | > 100 µM (inactive) | > 100 µM (inactive) | – | > 100 µM (inactive)
3 | Nn1c(S)nnc1NNC(=O)C(=O)Nc1cc(Cl)c(Cl)cc1Cl | 20 µM (inactive) | > 100 µM (inactive) | > 100 µM (inactive) | > 100 µM | > 100 µM (inactive) | > 100 µM (inactive) | > 100 µM (inactive) | > 100 µM (inactive) | > 100 µM (inactive) | > 100 µM (inactive) | > 100 µM (inactive) | > 100 µM (inactive) | > 100 µM (inactive) | > 100 µM (inactive) | > 100 µM (inactive)
4 | COc1ccc2c(CCNS(=O)(=O)c3ccccc3)c(C(C)=O)[nH]c2c1[N+](=O)[O-] | > 100 µM (inactive) | – | > 100 µM (inactive) | > 100 µM | – | > 100 µM (inactive) | > 100 µM (inactive) | – | > 100 µM (inactive) | – | – | > 100 µM (inactive) | > 100 µM (inactive) | > 100 µM (inactive) | > 100 µM (inactive)
5 | N/N=C(\CC1OC(=O)c2ccccc21)c1ccco1 (stereo not given) | 59.2 µM (inactive) | > 100 µM (inactive) | > 100 µM (inactive) | > 100 µM | > 100 µM (inactive) | > 100 µM (inactive) | 80 µM (inactive) | > 100 µM (inactive) | > 100 µM (inactive) | > 100 µM (inactive) | > 100 µM (inactive) | > 100 µM (inactive) | – | > 100 µM (inactive) | > 100 µM (inactive)
6 | O=C(Nc1ccc(Cl)c(Cl)c1)C(=O)Nn1c(S)nc2ccccc2c1=O | > 100 µM (inactive) | > 100 µM (inactive) | > 100 µM (inactive) | > 100 µM | 45.3 µM (inactive) | > 100 µM (inactive) | > 100 µM (inactive) | > 100 µM (inactive) | > 100 µM (inactive) | > 100 µM (inactive) | > 100 µM (inactive) | > 100 µM (inactive) | > 100 µM (inactive) | > 100 µM (inactive) | > 100 µM (inactive)
7 | COC(=O)c1ccc(OCc2ccc3oc(=O)c(-c4ccccc4)nc3c2)cc1 | 23.5 µM (inactive) | > 100 µM (inactive) | > 100 µM (inactive) | > 100 µM | – | > 100 µM (inactive) | > 100 µM (inactive) | 59.2 µM (inactive) | > 100 µM (inactive) | – | > 100 µM (inactive) | > 100 µM (inactive) | > 100 µM (inactive) | > 100 µM (inactive) | > 100 µM (inactive)
8 | COc1ccc(-c2cc(Cc3cccs3)c(=O)[nH]n2)cc1 | – | > 100 µM (inactive) | > 100 µM (inactive) | 49 µM | 49.9 µM (inactive) | > 100 µM (inactive) | – | > 100 µM (inactive) | > 100 µM (inactive) | 83.8 µM (inactive) | 19 µM (inactive) | > 100 µM (inactive) | > 100 µM (inactive) | 42.3 µM (inactive) | 82 µM (inactive)
9 | Cc1cc(=O)oc2cc(OCc3nc4ccccc4c(=O)n3-c3ccccc3)ccc12 | > 100 µM (inactive) | > 100 µM (inactive) | > 100 µM (inactive) | > 100 µM | 28.1 µM (inactive) | > 100 µM (inactive) | > 100 µM (inactive) | > 100 µM (inactive) | > 100 µM (inactive) | 34 µM (inactive) | > 100 µM (inactive) | 27.5 µM (inactive) | 54.7 µM (inactive) | – | –
10 | O=C(Cc1ccccc1)N/N=C(/c1nc2ccc([N+](=O)[O-])cc2nc1O)C(O)c1ccco1 (stereo not given) | 43.7 µM (inactive) | > 100 µM (inactive) | > 100 µM (inactive) | 67.8 µM | > 100 µM (inactive) | > 100 µM (inactive) | > 100 µM (inactive) | > 100 µM (inactive) | > 100 µM (inactive) | – | 66.4 µM (inactive) | – | > 100 µM (inactive) | > 100 µM (inactive) | > 100 µM (inactive)
11 | COC(=O)c1c/c(=N\NC(=O)CC(=O)Nc2ccc(C)cc2)c2ccccc2o1 | > 100 µM (inactive) | > 100 µM (inactive) | – | > 100 µM | > 100 µM (inactive) | > 100 µM (inactive) | > 100 µM (inactive) | > 100 µM (inactive) | > 100 µM (inactive) | > 100 µM (inactive) | > 100 µM (inactive) | > 100 µM (inactive) | > 100 µM (inactive) | > 100 µM (inactive) | > 100 µM (inactive)
